From ChEMBL document CHEMBL3991601, “The target landscape of clinical kinase drugs” (Science, 2017)
The source made the active and inactive calls.

Columns and labels:
[1] = target: PAS domain-containing serine/threonine-protein kinase (Homo sapiens, UniProt Q96RG2)
[2] = target: T1, MAP/microtubule affinity-regulating kinase 4 (Homo sapiens, UniProt Q96L34)
T1 sequence (Q96L34 whole entry): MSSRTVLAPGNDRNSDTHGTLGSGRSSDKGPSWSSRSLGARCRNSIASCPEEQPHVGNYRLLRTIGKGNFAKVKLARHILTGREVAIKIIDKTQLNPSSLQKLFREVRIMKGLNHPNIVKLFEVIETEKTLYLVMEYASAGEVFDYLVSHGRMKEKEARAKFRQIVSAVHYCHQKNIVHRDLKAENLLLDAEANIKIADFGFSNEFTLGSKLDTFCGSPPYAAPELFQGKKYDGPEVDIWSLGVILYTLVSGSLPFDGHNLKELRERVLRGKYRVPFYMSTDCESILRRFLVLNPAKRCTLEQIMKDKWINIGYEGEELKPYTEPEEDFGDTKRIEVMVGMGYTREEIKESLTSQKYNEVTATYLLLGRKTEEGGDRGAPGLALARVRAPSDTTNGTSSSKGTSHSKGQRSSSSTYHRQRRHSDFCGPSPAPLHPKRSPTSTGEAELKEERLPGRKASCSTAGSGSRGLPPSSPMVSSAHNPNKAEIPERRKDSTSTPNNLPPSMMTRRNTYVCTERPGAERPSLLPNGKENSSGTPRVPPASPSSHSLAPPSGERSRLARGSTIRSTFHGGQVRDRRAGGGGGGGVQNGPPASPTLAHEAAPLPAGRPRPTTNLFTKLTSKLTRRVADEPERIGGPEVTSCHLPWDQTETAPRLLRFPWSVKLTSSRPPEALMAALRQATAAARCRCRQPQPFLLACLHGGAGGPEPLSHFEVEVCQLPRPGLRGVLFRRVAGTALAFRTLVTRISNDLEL

[3] = target: Dual specificity protein kinase CLK4 (Homo sapiens, UniProt Q9HAZ1)
[4] = target: MAP kinase-activated protein kinase 3 (Homo sapiens, UniProt Q16644)
[5] = target: Membrane-associated progesterone receptor component 1 (Homo sapiens, UniProt O00264)
[6] = target: Serine/threonine-protein kinase ATR (Homo sapiens, UniProt Q13535)
[7] = target: Cyclin-dependent kinase 17 (Homo sapiens, UniProt Q00537)
[8] = target: T2, Protein kinase C zeta type (Homo sapiens, UniProt Q05513)
T2 sequence (Q05513 whole entry): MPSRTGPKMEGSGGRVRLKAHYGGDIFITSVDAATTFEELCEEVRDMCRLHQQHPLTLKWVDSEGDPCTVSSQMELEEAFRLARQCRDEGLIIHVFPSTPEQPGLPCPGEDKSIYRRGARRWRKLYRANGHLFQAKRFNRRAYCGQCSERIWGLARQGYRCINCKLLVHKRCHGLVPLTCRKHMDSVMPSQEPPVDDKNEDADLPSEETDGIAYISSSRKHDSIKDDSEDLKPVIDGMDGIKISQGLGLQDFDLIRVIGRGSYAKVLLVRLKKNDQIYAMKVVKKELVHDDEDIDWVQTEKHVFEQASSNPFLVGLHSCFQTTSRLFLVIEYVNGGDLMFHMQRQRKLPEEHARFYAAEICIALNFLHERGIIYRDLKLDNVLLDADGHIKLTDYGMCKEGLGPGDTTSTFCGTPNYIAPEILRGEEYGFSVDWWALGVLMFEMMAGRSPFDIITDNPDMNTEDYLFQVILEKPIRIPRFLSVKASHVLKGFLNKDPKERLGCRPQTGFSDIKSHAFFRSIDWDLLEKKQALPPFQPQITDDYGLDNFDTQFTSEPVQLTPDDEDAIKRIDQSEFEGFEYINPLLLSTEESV

[9] = target: T3, Dual specificity protein kinase TTK (Homo sapiens, UniProt P33981)
T3 sequence (P33981 whole entry): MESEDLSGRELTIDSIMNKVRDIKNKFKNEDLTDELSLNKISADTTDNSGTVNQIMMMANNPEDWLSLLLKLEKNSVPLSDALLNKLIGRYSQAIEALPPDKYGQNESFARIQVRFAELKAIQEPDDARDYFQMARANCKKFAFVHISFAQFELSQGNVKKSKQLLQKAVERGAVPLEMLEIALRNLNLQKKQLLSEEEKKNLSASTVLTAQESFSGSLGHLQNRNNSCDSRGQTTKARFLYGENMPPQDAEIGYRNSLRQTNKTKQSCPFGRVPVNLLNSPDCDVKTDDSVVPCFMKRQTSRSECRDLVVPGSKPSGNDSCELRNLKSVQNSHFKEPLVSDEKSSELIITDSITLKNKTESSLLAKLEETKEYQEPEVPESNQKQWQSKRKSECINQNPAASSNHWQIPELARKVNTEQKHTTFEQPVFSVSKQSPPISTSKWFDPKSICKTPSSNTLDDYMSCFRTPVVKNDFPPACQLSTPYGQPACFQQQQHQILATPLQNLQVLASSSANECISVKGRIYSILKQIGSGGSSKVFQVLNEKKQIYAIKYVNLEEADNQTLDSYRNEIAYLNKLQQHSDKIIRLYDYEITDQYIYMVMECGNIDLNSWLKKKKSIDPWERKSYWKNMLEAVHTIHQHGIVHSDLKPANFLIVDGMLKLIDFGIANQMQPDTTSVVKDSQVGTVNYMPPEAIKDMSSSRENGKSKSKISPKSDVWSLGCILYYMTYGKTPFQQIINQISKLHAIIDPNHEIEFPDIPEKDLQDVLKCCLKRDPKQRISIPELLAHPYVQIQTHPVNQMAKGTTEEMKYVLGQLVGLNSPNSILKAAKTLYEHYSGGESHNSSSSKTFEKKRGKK

[10] = target: Uncharacterized aarF domain-containing protein kinase 5 (Homo sapiens, UniProt Q3MIX3)
Also: in the data inactive means no Kd found up to 30 µM.

Sequence of Cyclin-dependent kinase 17 (Q00537 whole entry): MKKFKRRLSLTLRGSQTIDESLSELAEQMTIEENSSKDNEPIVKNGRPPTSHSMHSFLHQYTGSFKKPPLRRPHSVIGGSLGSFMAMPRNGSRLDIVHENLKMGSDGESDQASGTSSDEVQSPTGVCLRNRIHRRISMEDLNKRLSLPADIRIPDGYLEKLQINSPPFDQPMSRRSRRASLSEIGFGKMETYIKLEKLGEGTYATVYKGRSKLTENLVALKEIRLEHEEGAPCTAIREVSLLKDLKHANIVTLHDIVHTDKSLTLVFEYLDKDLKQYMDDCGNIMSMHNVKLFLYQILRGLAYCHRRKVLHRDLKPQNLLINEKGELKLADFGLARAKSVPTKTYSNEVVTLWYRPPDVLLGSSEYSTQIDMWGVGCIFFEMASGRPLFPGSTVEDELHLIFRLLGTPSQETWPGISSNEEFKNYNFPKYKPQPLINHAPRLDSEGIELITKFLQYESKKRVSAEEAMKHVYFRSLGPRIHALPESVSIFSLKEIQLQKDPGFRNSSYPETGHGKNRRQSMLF
Sequence of Membrane-associated progesterone receptor component 1 (O00264 whole entry): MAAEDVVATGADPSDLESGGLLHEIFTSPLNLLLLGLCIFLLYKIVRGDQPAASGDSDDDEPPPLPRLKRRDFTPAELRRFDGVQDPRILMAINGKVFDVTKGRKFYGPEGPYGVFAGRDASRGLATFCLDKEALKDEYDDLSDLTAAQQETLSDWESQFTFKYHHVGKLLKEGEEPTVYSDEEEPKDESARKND
Sequence of Uncharacterized aarF domain-containing protein kinase 5 (Q3MIX3 whole entry, the tested form may be a part): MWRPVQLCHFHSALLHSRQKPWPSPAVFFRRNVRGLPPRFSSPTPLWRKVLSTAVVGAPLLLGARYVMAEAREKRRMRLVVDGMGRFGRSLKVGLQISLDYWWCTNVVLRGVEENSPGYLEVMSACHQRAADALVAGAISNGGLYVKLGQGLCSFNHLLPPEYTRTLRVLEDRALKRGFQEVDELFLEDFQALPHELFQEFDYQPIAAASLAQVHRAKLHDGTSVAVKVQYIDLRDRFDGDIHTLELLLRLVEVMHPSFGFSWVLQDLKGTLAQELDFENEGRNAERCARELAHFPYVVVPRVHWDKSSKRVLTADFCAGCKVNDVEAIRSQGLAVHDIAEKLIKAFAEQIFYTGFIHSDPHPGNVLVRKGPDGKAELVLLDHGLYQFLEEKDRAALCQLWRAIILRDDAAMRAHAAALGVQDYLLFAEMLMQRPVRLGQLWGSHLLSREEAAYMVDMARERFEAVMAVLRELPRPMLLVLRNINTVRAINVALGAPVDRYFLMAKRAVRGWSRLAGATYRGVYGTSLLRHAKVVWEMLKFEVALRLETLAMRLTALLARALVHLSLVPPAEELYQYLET
Sequence of Dual specificity protein kinase CLK4 (Q9HAZ1 whole entry): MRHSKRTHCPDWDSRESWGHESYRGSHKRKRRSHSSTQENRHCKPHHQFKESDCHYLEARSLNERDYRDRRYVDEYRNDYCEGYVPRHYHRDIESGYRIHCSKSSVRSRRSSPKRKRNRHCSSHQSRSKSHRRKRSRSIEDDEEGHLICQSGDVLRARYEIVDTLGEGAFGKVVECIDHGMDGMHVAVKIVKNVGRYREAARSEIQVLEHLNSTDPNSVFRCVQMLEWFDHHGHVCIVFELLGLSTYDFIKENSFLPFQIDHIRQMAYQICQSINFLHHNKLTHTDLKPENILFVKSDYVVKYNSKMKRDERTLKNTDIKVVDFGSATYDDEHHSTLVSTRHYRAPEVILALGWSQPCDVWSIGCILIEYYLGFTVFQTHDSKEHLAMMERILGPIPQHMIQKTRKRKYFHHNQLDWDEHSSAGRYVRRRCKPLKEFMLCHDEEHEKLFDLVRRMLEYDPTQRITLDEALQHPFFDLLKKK
Sequence of MAP kinase-activated protein kinase 3 (Q16644 whole entry): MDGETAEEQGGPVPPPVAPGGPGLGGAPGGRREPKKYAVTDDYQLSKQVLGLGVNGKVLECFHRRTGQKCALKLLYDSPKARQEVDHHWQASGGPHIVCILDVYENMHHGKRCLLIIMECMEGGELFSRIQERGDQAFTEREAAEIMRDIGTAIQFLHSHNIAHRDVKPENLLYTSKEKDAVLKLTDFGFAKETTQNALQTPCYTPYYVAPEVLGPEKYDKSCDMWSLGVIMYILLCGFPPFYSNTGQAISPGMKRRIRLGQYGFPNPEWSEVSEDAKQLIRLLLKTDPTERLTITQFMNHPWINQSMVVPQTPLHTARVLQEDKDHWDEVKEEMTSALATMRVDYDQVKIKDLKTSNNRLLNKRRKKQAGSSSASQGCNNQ
Sequence of Serine/threonine-protein kinase ATR (Q13535 whole entry): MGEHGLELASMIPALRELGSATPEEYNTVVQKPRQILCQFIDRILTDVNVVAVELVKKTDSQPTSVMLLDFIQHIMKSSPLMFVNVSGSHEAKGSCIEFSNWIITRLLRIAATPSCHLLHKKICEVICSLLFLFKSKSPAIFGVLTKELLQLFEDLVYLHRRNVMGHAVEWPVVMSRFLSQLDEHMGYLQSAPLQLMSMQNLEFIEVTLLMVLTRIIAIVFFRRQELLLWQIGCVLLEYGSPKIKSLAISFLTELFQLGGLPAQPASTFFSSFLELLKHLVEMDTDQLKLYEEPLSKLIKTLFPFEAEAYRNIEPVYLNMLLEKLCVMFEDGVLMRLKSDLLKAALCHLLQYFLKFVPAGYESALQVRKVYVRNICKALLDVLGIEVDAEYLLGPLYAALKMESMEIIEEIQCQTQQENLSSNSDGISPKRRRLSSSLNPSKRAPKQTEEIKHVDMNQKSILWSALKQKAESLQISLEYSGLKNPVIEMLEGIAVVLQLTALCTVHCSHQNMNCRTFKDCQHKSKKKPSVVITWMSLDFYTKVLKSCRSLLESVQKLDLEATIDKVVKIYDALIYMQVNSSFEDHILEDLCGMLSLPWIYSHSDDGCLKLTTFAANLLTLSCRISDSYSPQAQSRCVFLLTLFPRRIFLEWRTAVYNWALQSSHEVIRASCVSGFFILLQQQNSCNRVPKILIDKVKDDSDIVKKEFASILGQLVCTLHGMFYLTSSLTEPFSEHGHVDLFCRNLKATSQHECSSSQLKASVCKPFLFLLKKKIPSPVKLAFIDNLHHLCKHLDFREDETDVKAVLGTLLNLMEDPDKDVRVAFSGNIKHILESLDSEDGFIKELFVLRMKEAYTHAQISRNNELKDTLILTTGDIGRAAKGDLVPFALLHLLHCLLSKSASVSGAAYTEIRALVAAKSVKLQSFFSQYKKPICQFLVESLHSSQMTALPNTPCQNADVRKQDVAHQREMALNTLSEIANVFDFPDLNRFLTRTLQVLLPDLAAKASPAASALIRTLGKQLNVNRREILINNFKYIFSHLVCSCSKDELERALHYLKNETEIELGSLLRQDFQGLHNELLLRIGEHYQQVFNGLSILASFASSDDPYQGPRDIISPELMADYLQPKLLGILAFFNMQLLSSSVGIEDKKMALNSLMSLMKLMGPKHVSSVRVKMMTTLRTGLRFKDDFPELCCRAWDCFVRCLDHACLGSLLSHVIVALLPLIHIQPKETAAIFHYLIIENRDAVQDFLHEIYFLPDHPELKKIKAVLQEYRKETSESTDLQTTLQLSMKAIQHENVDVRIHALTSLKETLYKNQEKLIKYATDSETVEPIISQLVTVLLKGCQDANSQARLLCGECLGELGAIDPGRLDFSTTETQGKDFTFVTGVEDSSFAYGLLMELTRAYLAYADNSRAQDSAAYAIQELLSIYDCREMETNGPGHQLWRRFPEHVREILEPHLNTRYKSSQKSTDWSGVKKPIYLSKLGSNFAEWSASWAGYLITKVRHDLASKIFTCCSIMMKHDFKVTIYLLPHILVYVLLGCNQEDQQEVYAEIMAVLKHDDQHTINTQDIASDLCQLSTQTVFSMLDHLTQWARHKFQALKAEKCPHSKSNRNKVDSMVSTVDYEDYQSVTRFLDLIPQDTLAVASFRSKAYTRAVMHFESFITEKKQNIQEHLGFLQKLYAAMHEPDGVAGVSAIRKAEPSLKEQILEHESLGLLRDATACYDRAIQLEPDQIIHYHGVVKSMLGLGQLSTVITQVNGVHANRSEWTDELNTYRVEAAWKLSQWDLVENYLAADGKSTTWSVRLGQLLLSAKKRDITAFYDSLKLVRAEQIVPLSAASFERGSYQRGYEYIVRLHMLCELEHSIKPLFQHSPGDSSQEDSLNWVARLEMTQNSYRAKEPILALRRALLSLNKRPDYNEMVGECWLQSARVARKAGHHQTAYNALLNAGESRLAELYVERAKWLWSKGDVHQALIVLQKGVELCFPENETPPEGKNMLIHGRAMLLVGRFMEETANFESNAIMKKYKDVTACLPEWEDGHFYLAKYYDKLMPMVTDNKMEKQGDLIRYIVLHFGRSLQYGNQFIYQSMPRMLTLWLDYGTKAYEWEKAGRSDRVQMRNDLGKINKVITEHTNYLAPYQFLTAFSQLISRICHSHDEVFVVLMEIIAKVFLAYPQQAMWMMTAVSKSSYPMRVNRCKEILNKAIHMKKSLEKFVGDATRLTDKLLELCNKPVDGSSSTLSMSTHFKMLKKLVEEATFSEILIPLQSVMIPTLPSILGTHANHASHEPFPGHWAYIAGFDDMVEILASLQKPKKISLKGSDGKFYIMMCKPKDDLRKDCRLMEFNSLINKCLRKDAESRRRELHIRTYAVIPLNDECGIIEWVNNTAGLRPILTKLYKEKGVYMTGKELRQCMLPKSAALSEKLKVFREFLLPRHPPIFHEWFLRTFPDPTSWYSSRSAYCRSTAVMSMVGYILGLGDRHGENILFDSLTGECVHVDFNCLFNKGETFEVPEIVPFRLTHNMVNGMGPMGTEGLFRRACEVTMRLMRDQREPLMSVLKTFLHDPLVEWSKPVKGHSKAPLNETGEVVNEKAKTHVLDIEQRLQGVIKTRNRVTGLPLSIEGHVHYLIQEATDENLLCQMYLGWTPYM

Cc1cc(Nc2nc(N[C@@H](C)c3ncc(F)cn3)ncc2Cl)n[nH]1 [AZD-1480]
Kd [1]: > 30 µM (inactive)
Kd [2]: > 30 µM (inactive)
Kd [3]: > 30 µM (inactive)
Kd [4]: > 30 µM (inactive)
Kd [5]: > 30 µM (inactive)
Kd [6]: > 30 µM (inactive)
Kd [7]: > 30 µM (inactive)
Kd [8]: > 30 µM (inactive)

CCc1cc2c(cc1N1CCC(N3CCOCC3)CC1)C(C)(C)c1[nH]c3cc(C#N)ccc3c1C2=O [ALECTINIB]
Kd [1]: > 30 µM (inactive)
Kd [2]: > 30 µM (inactive)
Kd [3]: > 30 µM (inactive)
Kd [9]: > 30 µM (inactive)
Kd [4]: > 30 µM (inactive)
Kd [6]: > 30 µM (inactive)
Kd [7]: > 30 µM (inactive)
Kd [10]: > 30 µM (inactive)
Kd [8]: > 30 µM (inactive)

Cc1cc(-c2cc(OC(=O)c3ccccc3)ccc2Cl)cc2nnc(Nc3ccc(OCCN4CCCC4)cc3)nc12 [TG100-801]
Kd [1]: > 30 µM (inactive)
Kd [2]: > 30 µM (inactive)
Kd [9]: > 30 µM (inactive)
Kd [4]: > 30 µM (inactive)
Kd [6]: > 30 µM (inactive)
Kd [7]: > 30 µM (inactive)
Kd [10]: > 30 µM (inactive)
Kd [8]: > 30 µM (inactive)

COCCN1CCN(Cc2ccc(-c3n[nH]c4c3C(=O)c3c(NC(=O)NN5CCOCC5)cccc3-4)cc2)CC1 [RGB-286638]
Kd [2]: > 30 µM (inactive)
Kd [3]: 0.002 µM
Kd [4]: > 30 µM (inactive)
Kd [5]: > 30 µM (inactive)
Kd [6]: > 30 µM (inactive)
Kd [10]: > 30 µM (inactive)
Kd [8]: > 30 µM (inactive)

NC(=O)c1ccc(N(C(N)=O)c2c(F)cccc2F)nc1-c1ccc(F)cc1F [VX-702]
Kd [1]: > 30 µM (inactive)
Kd [2]: > 30 µM (inactive)
Kd [3]: > 30 µM (inactive)
Kd [4]: > 30 µM (inactive)
Kd [5]: > 30 µM (inactive)
Kd [6]: > 30 µM (inactive)
Kd [7]: > 30 µM (inactive)
Kd [8]: > 30 µM (inactive)

O[C@H]1CC[C@H](Nc2ncc3nc(Nc4c(F)cc(F)cc4F)n([C@H]4CCOC4)c3n2)CC1 [TANZISERTIB]
Kd [1]: > 30 µM (inactive)
Kd [2]: > 30 µM (inactive)
Kd [3]: > 30 µM (inactive)
Kd [9]: > 30 µM (inactive)
Kd [4]: > 30 µM (inactive)
Kd [6]: > 30 µM (inactive)
Kd [7]: > 30 µM (inactive)
Kd [10]: > 30 µM (inactive)
Kd [8]: > 30 µM (inactive)

C#Cc1cccc(Nc2ncnc3cc4c(cc23)OCCOCCOCCO4)c1 [ICOTINIB]
Kd [1]: > 30 µM (inactive)
Kd [2]: > 30 µM (inactive)
Kd [3]: > 30 µM (inactive)
Kd [4]: > 30 µM (inactive)
Kd [5]: > 30 µM (inactive)
Kd [6]: > 30 µM (inactive)
Kd [7]: > 30 µM (inactive)
Kd [10]: > 30 µM (inactive)
Kd [8]: > 30 µM (inactive)

Cn1c(=O)n(-c2ccc(C(C)(C)C#N)cc2)c2c3cc(-c4cnc5ccccc5c4)ccc3ncc21 [DACTOLISIB]
Kd [2]: > 30 µM (inactive)
Kd [9]: > 30 µM (inactive)
Kd [4]: > 30 µM (inactive)
Kd [5]: > 30 µM (inactive)
Kd [6]: > 30 µM (inactive)
Kd [7]: > 30 µM (inactive)
Kd [10]: > 30 µM (inactive)
Kd [8]: > 30 µM (inactive)

CCN1CCN(Cc2ccc(Nc3ncc(F)c(-c4cc(F)c5nc(C)n(C(C)C)c5c4)n3)nc2)CC1 [ABEMACICLIB]
Kd [2]: > 30 µM (inactive)
Kd [3]: 0.013 µM
Kd [9]: > 30 µM (inactive)
Kd [4]: > 30 µM (inactive)
Kd [6]: > 30 µM (inactive)
Kd [10]: > 30 µM (inactive)
Kd [8]: > 30 µM (inactive)

COc1cccc2cc(-c3nc([C@H]4CC[C@H](C(=O)O)CC4)n4ncnc(N)c34)[nH]c12 [OSI-027]
Kd [2]: > 30 µM (inactive)
Kd [3]: > 30 µM (inactive)
Kd [4]: > 30 µM (inactive)
Kd [5]: > 30 µM (inactive)
Kd [8]: > 30 µM (inactive)
